PubChem BioAssay AID330 (DTP/NCI, 2004)
Where “and” joins values, the source holds several entries; their conditions need not be identical. Equal entries are not always repeated. Inconclusive results and toxic doses are left out. Peptide text beside a SMILES is read from it. * marks the point of attachment. Cbz = O=C(OCc1ccccc1)*; CH2Cl = ClC*

Test system: P388 leukemia ip, CD2F1 mice, survival T/C
Assay: NCI In Vivo Anticancer Drug Screen. Data for tumor model P388 Leukemia (intraperitoneal) in CD2F1 (CDF1) mice
Settings: endpoint: median survival time, higher = longer survival
In short: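 Mice carrying the transplanted tumor received test compound or vehicle. Survival was recorded in each group, and the value is the treated-group measurement divided by that of the vehicle-treated control group.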

[1] = dose: 50.0 mg/kg/injection, schedule: Q01DX009 (ip), vehicle: saline
[2] = dose: 100.0 mg/kg/injection, schedule: Q01DX009 (ip), vehicle: saline
[3] = dose: 200.0 mg/kg/injection, schedule: Q01DX009 (ip), vehicle: saline
[4] = dose: 60.0 mg/kg/injection, schedule: Q01DX005 (ip), vehicle: saline
[5] = dose: 120.0 mg/kg/injection, schedule: Q01DX005 (ip), vehicle: saline
[6] = dose: 100.0 mg/kg/injection, schedule: Q01DX001 (ip), vehicle: Klucel (hydroxypropylcellulose) (HPC)
[7] = dose: 200.0 mg/kg/injection, schedule: Q01DX001 (ip), vehicle: Klucel (hydroxypropylcellulose) (HPC)
[8] = dose: 400.0 mg/kg/injection, schedule: Q01DX001 (ip), vehicle: Klucel (hydroxypropylcellulose) (HPC)
[9] = dose: 50.0 mg/kg/injection, schedule: Q01DX009 (ip), vehicle: Klucel (hydroxypropylcellulose) (HPC)
[10] = dose: 100.0 mg/kg/injection, schedule: Q01DX009 (ip), vehicle: Klucel (hydroxypropylcellulose) (HPC)
[11] = dose: 6.25 mg/kg/injection, schedule: Q01DX005 (ip), vehicle: Klucel (hydroxypropylcellulose) (HPC)
[12] = dose: 12.5 mg/kg/injection, schedule: Q01DX005 (ip), vehicle: Klucel (hydroxypropylcellulose) (HPC)
[13] = dose: 25.0 mg/kg/injection, schedule: Q01DX005 (ip), vehicle: Klucel (hydroxypropylcellulose) (HPC)
[14] = dose: 50.0 mg/kg/injection, schedule: Q01DX005 (ip), vehicle: Klucel (hydroxypropylcellulose) (HPC)
[15] = dose: 100.0 mg/kg/injection, schedule: Q04DX003 (ip), vehicle: saline with Tween-80
[16] = dose: 200.0 mg/kg/injection, schedule: Q04DX003 (ip), vehicle: saline with Tween-80
[17] = dose: 400.0 mg/kg/injection, schedule: Q04DX003 (ip), vehicle: saline with Tween-80
[18] = dose: 60.0 mg/kg/injection, schedule: Q01DX005 (ip), vehicle: saline with Tween-80
[19] = dose: 120.0 mg/kg/injection, schedule: Q01DX005 (ip), vehicle: saline with Tween-80
[20] = dose: 240.0 mg/kg/injection, schedule: Q01DX005 (ip), vehicle: saline with Tween-80
[21] = dose: 6.25 mg/kg/injection, schedule: Q01DX009 (ip), vehicle: saline
[22] = dose: 50.0 mg/kg/injection, schedule: Q01DX005 (ip), vehicle: saline with Tween-80
[23] = dose: 12.5 mg/kg/injection, schedule: Q01DX009 (ip), vehicle: saline
[24] = dose: 25.0 mg/kg/injection, schedule: Q01DX009 (ip), vehicle: saline

CC(C)C1(C(C)C)OCCO1
T/C [1]: 100 % of control
T/C [2]: 109 % of control
T/C [3]: 109 % of control

O=C(NCCN1CCOCC1)Nc1ccc2c(c1)OCCOCCOCCOCCO2
T/C [4]: 105 % of control
T/C [5]: 102 % of control
T/C (dose: 240.0 mg/kg/injection, schedule: Q01DX005 (ip), vehicle: saline): 99 % of control

COc1ccc(/C=C\C(C)=N\NC(=S)Nc2ccc(Cl)cc2)cc1
T/C [6]: 103 % of control
T/C [7]: 102 % of control
T/C [8]: 103 % of control

O=C1c2cc(F)ccc2OC2CCON12 (stereo unspecified)
T/C [6]: 97 % of control
T/C [7]: 97 % of control
T/C [8]: 103 % of control

CCCCCC(=O)C(=O)c1ccc(O)c(C)c1O
T/C [9]: 95 % of control
T/C [10]: 89 % of control

O=C1/C(=C/c2ccc(Cl)cc2)SC(=S)N1C1CC1
T/C [11]: 91 % of control
T/C [12]: 96 % of control
T/C [13]: 95 % of control
T/C [14]: 89 % of control

CCOC(=O)C1CC1(C(=O)OCC)C(=O)OCC (stereo unspecified)
T/C [15]: 96 % of control
T/C [16]: 97 % of control
T/C [17]: 92 % of control

CC[C@@H]1C[C@@H]2CN3CCc4c([nH]c5cc(Cc6ccc(OC)c(OC)c6)c(OC)cc45)C(C(=O)OC)(C2)C13
T/C (dose: 0.5 mg/kg/injection, schedule: Q01DX009 (ip), vehicle: Klucel (hydroxypropylcellulose) (HPC)): 96 % of control
T/C (dose: 1.0 mg/kg/injection, schedule: Q01DX009 (ip), vehicle: Klucel (hydroxypropylcellulose) (HPC)): 107 % of control
T/C (dose: 2.0 mg/kg/injection, schedule: Q01DX009 (ip), vehicle: Klucel (hydroxypropylcellulose) (HPC)): 111 % of control
T/C (dose: 4.0 mg/kg/injection, schedule: Q01DX009 (ip), vehicle: Klucel (hydroxypropylcellulose) (HPC)): 107 % of control and 97 % of control
T/C (dose: 8.0 mg/kg/injection, schedule: Q01DX009 (ip), vehicle: Klucel (hydroxypropylcellulose) (HPC)): 101 % of control
T/C (dose: 16.0 mg/kg/injection, schedule: Q01DX009 (ip), vehicle: Klucel (hydroxypropylcellulose) (HPC)): 98 % of control

CC(C)(C)C1=CC(=CC=C2C=CN(CCCCCCCCCCCO)C=C2)C=C(C(C)(C)C)C1=O
T/C [18]: 108 % of control
T/C [19]: 107 % of control
T/C [20]: 110 % of control

COc1cc2c(c(OC)c1OC)-c1ccc(SC)c(=O)cc1C(N(C)C(=O)C(F)(F)F)CC2 (stereo unspecified)
T/C (dose: 1.25 mg/kg/injection, schedule: Q01DX009 (ip), vehicle: Klucel (hydroxypropylcellulose) (HPC)): 109 % of control
T/C (dose: 2.5 mg/kg/injection, schedule: Q01DX009 (ip), vehicle: Klucel (hydroxypropylcellulose) (HPC)): 111 % of control and 122 % of control
T/C (dose: 20.0 mg/kg/injection, schedule: Q01DX009 (ip), vehicle: Klucel (hydroxypropylcellulose) (HPC)): 89 % of control

NS(=O)(=O)c1ccc(N2CCS(=O)(=O)CC2)cc1
T/C [1]: 101 % of control
T/C [2]: 90 % of control
T/C [3]: 97 % of control

NS(=O)(=O)c1ccc2c(=O)c(C(=O)O)c[nH]c2c1
T/C (dose: 1.56 mg/kg/injection, schedule: Q01DX009 (ip), vehicle: saline): 98 % of control
T/C (dose: 3.12 mg/kg/injection, schedule: Q01DX009 (ip), vehicle: saline): 92 % of control
T/C [21]: 92 % of control
T/C [1]: 101 % of control
T/C [2]: 96 % of control

Cc1oc2ccccc2c(=O)c1CN(CCO)CCO
T/C [4]: 95 % of control
T/C [5]: 101 % of control

CCCCCCCC#CC1(C(O)CC)Sc2ccccc2N1C (stereo unspecified)
T/C [18]: 107 % of control
T/C [19]: 101 % of control
T/C [20]: 105 % of control

Cc1c(COC(=O)NC(C)C)c(COC(=O)NC(C)C)c(-c2ccccc2)n1-c1ccccc1
T/C [22]: 188 % of control and 192 % of control

CC1=CC(OC2C=C(C)C(=O)O2)OC1=O (stereo unspecified)
T/C (dose: 100.0 mg/kg/injection, schedule: Q04DX002 (ip), vehicle: saline): 100 % of control
T/C (dose: 200.0 mg/kg/injection, schedule: Q04DX002 (ip), vehicle: saline): 100 % of control
T/C (dose: 400.0 mg/kg/injection, schedule: Q04DX002 (ip), vehicle: saline): 104 % of control

CCn1c2ccccc2c2cc(N=Nc3cc(C(C)C)c(O)cc3C)ccc21
T/C [15]: 93 % of control
T/C [16]: 102 % of control
T/C [17]: 102 % of control

CCN(CC)CCN1c2ccccc2Sc2ccc3ccccc3c21
T/C (dose: 50.0 mg/kg/injection, schedule: Q01DX005 (ip), vehicle: saline + Tween-80 + alcohol): 107 % of control
T/C (dose: 100.0 mg/kg/injection, schedule: Q01DX005 (ip), vehicle: saline + Tween-80 + alcohol): 105 % of control
T/C (dose: 200.0 mg/kg/injection, schedule: Q01DX005 (ip), vehicle: saline + Tween-80 + alcohol): 102 % of control

O=C(COc1ccc(Cl)cc1Cl)N1CCNC1=S
T/C [9]: 100 % of control
T/C [10]: 103 % of control
T/C (dose: 200.0 mg/kg/injection, schedule: Q01DX009 (ip), vehicle: Klucel (hydroxypropylcellulose) (HPC)): 100 % of control

Nc1nc(SCC(=O)O)[nH]c(=O)c1N
T/C [22]: 91 % of control
T/C (dose: 100.0 mg/kg/injection, schedule: Q01DX005 (ip), vehicle: saline with Tween-80): 104 % of control
T/C (dose: 200.0 mg/kg/injection, schedule: Q01DX005 (ip), vehicle: saline with Tween-80): 104 % of control

O=[N+]([O-])c1ccc(/C(=C\c2ccc(-c3ccccc3)o2)S(=O)(=O)c2ccccc2)o1
T/C [23]: 89 % of control
T/C [24]: 89 % of control

CC(=O)Nc1ccc(Sc2ncc([N+](=O)[O-])s2)cc1
T/C (dose: 12.5 mg/kg/injection, schedule: Q01DX009 (ip), vehicle: Klucel (hydroxypropylcellulose) (HPC)): 100 % of control
T/C (dose: 25.0 mg/kg/injection, schedule: Q01DX009 (ip), vehicle: Klucel (hydroxypropylcellulose) (HPC)): 116 % of control
T/C [9]: 100 % of control and 108 % of control
T/C [10]: 102 % of control

c1ccc(CN2CO[C@@H]3CCCCC[C@H]32)cc1
T/C [6]: 101 % of control
T/C (dose: 100.0 mg/kg/injection, schedule: Q04DX002 (ip), vehicle: Klucel (hydroxypropylcellulose) (HPC)): 99 % of control
T/C [7]: 102 % of control
T/C (dose: 200.0 mg/kg/injection, schedule: Q04DX002 (ip), vehicle: Klucel (hydroxypropylcellulose) (HPC)): 115 % of control
T/C [8]: 98 % of control
T/C (dose: 400.0 mg/kg/injection, schedule: Q04DX002 (ip), vehicle: Klucel (hydroxypropylcellulose) (HPC)): 124 % of control

COC(=O)c1nnn(Cc2ccccc2)c1Cl
T/C [14]: 98 % of control
T/C (dose: 100.0 mg/kg/injection, schedule: Q01DX005 (ip), vehicle: Klucel (hydroxypropylcellulose) (HPC)): 103 % of control and 104 % of control
T/C (dose: 200.0 mg/kg/injection, schedule: Q01DX005 (ip), vehicle: Klucel (hydroxypropylcellulose) (HPC)): 102 % of control and 105 % of control

CSc1nc(SC)c2c(CN=[N+]=[N-])c(Br)n(Cc3ccccc3)c2n1
T/C (dose: 3.13 mg/kg/injection, schedule: Q01DX001 (ip), vehicle: saline with Tween-80): 98 % of control
T/C (dose: 6.25 mg/kg/injection, schedule: Q01DX001 (ip), vehicle: saline with Tween-80): 86 % of control
T/C (dose: 25.0 mg/kg/injection, schedule: Q01DX001 (ip), vehicle: saline with Tween-80): 86 % of control

CC(C)CC(NC(=O)OCc1ccccc1)C(=O)NC(Cc1ccccc1)C(=O)CCl (stereo not drawn) (Cbz-Leu-Phe-CH2Cl; configuration not given here)
T/C [21]: 107 % of control
T/C [23]: 106 % of control
T/C [24]: 111 % of control
T/C [1]: 113 % of control
T/C [2]: 120 % of control

CC(=O)Oc1cc2c(cc1C(Nc1ccccn1)c1ccc3c(c1)OCO3)OCO2 (stereo unspecified)
T/C [18]: 98 % of control
T/C [19]: 92 % of control
T/C [20]: 97 % of control

CCCCCCC(O)CCCCCCCCCCC(N)=O (stereo unspecified)
T/C [11]: 99 % of control
T/C [12]: 96 % of control
T/C [13]: 94 % of control
